From US10278964B2, “Medical treatments based on anamorelin” (HELSINN HEALTHCARE SA, priority 2014, dated 2019)
“And” between values parts separate entries of the source, which are not always exact repeats. Equal entries are not always repeated. “Also recorded” adds a separate entry of the source.

What was measured:
[1] = test system: patients with cancer anorexia-cachexia syndrome; details: cited from earlier work
[2] = test system: patients with NSCLC-Cachexia; assay: Romana 1: randomized, double-blind, placebo-controlled phase 3 study of anamorelin HCl; format: in vivo, human; details: for Fatigue Domain of FACIT-F, change from baseline, subgroup / Simplified Evaluation of Fatigue (SEF), change from baseline, subgroup: MITT
Text: Example 1 Anamorelin HCl in the Treatment of Non-Small Cell Lung Cancer—Cachexia (NSCLC-C): A Randomized, Double-Blind, Placebo-Controlled, Multicenter, Phase III Study to Evaluate the Safety and Efficacy of Anamorelin HCl in Patients with NSCLC-C(Romana 1)
(§1) Key features of the Romana 1 study are as follows: • DESIGN: randomized, double-blind, placebo-controlled, multicenter, phase 3 study to evaluate the safety and efficacy of anamorelin HCl (anamorelin) in patients with NSCLC-Cachexia (59 sites; 15 countries) • PRIMARY ENDPOINT: Lean body mass (LBM) by DXA • SECONDARY ENDPOINTS: • Key: pooled overall survival, Anorexia/Cachexia sub-domain, Fatigue sub-domain, Simplified Evaluation of Appetite (SEA), and Simplified Evaluation of Fatigue (SEF) • Other: Body weight, study specific overall survival, FAACT/FACIT-F trial outcome index (TOI) and total scores, additional LBM analyses • EXPLORATORY ENDPOINTS: Hunger Assessment Scale (HAS), Karnofsky (KPS), responder analyses; Population pharmacokinetics (PK) in 90 patients • STUDY POPULATION: advanced NSCLC (unresectable Stage III or IV) and cachexia (≥5% body weight within 6 months or screening BMI<20 kg/m^2) • SAMPLE SIZE: 484 patients; randomization ratio 2:1 (anamorelin:placebo) • DOSING: placebo or 100 mg anamorelin for 12 weeks • SAFETY ASSESSMENTS: Adverse events (AEs), labs, vitals, ECGs

[3] = test system: patients with NSCLC-Cachexia; assay: Romana 2: randomized, double-blind, placebo-controlled phase 3 study of anamorelin HCl; format: in vivo, human
Text: Example 2 Anamorelin HCL in the Treatment of Non-Small Cell Lung Cancer—Cachexia (NSCLC-C): A Randomized, Double-Blind, Placebo-Controlled, Multicenter, Phase III Study to Evaluate the Safety and Efficacy of Anamorelin Hcl in Patients with NSCLC-C(Romana 2)
as §1, with “Romana 2” for “Romana 1”, “SIZE: 495” for “SIZE: 484”

healthy subjects [4] = details: 50 or 75 mg doses; after 6 days; cited from earlier work
healthy subjects [5] = details: cited from earlier work
[6] = test system: patients with various cancers and cachexia; details: 50 mg once per day; cited from earlier work
[7] = test system: patients with various cancers with cachexia; details: 50 mg once per day, cited from earlier work
[8] = test system: patients with advanced non-small cell lung cancer (NSCLC); details: cited from earlier work
[9] = test system: patients with advanced cancer and cachexia; details: after 4 weeks; cited from earlier work
[10] = ITT population, 100 mg anamorelin for 12 weeks, LBM by DXA
[11] = ITT population, over 12 weeks, 100 mg
[12] = MITT population, 12-week study period, anamorelin vs. placebo
[13] = MITT population, over 12 weeks, 100 mg
[14] = anamorelin treatment for 12 weeks

CC(=O)O[C@]1(C(C)=O)CC[C@H]2[C@@H]3C=C(C)C4=CC(=O)CC[C@]4(C)[C@H]3CC[C@@]21C [megestrol acetate]
Quality of life in cancer cachexia patients ([1]; 13 of 14 studies no significant difference vs placebo, dronabinol, eicosapentaenoic acid or glucocorticosteroids): has not been shown to improve | Body weight and water ([1]; human, in vivo): only been shown to increase body weight and water | Fat mass or lean body mass ([1]; human, in vivo): does not improve

CN(C)N(C)C(=O)[C@@]1(Cc2ccccc2)CCCN(C(=O)[C@@H](Cc2c[nH]c3ccccc23)NC(=O)C(C)(C)N)C1 [anamorelin]
Lean Body Mass, median change from baseline over 12 weeks [2, 10]: 1.10 kg | Lean Body Mass, median treatment difference (anamorelin vs. placebo) [2, 11]: 1.54 kg | FAACT TOI, overall treatment difference [2, 12]: 2.86±1.161 | FAACT Total, overall treatment difference [2, 12]: 2.67±1.459 | FACIT TOI, overall treatment difference [2, 12]: 1.90±1.358 | FACIT Total, overall treatment difference [2, 12]: 2.07±1.651 | Anorexia/Cachexia Domain, Treatment Difference (anamorelin vs. placebo), LS Mean (SE) [2, 13]: 2.21 (0.617) | Body Weight, Treatment Difference (anamorelin vs. placebo), LS Mean (SE) [2, 13]: 2.07 (0.325) kg | Body Weight, overall change from baseline, LS Mean (SE) [2, 13]: 2.20±0.3 kg and 2.20 (0.326) kg | FACIT-F Fatigue Domain, change from baseline, LS Mean (SE) [2, 13]: 0.26 (0.886) | SEA Score, Treatment Difference (anamorelin vs. placebo), LS Mean (SE) [2, 13]: 0.65 (0.262) | SEA Score, change from baseline, LS Mean (SE) [2, 13]: 1.57 (0.317) | SEF Score, Treatment Difference (anamorelin vs. placebo), LS Mean (SE) [2, 13]: 0.33 (0.265) | SEF Score, change from baseline, LS Mean (SE) [2, 13]: 0.11 (0.309) | Fatigue Domain of FACIT-F, change from baseline, subgroup ([2]; BMI>18.5, Week 3 to 12): smaller improvement trend | Simplified Evaluation of Fatigue (SEF), change from baseline, subgroup ([2]; BMI≤18.5 (statistically significant at Week 3 and 6)): improvement trend over 12 Weeks | Fatigue Domain of FACIT-F, change from baseline, subgroup ([2]; ECOG 0-1, Week 3, 6, 9 to 12): gap increase between placebo and anamorelin | Fatigue Domain of FACIT-F, change from baseline, subgroup ([2]; aged 65 years and younger, concomitant opioid use, ECOG 2 (Weeks 9 and 12), BMI≤18.5): statistically significant improvement | Simplified Evaluation of Fatigue (SEF), change from baseline, subgroup ([2]; concomitant opioid use): small trend of improvement | Fatigue Domain of FACIT-F, change from baseline, subgroup ([2]; males, Week 3 to 6 (statistically significant at Week 9)): general improvement trend | Fatigue Domain of FACIT-F, change from baseline, subgroup ([2]; no-concomitant opioid use): smaller overall improvement trend | Tolerability [2, 14]: well tolerated | Percentage change from baseline in LBM ([2]; throughout the 12-week study): consistent improvement | FACIT-F score (fatigue), change from baseline ([2]; week 9, 100 mg): 0.33±0.9 | FACIT-F score (fatigue), change from baseline ([2]; week 12, 100 mg): 0.48±1.0 | Lean Body Mass, median change from baseline over 12 weeks [3, 10]: 0.75 | Lean Body Mass, median treatment difference (anamorelin vs. placebo) [3, 11]: 1.71 | FAACT TOI and total score (cachexia concerns) ([3]; MITT population): trending benefit | FACIT-F TOI and total score ([3]; MITT population): No benefit | SEF score vs. placebo ([3]; MITT population, 12-week study period): overall small trend of improvement; also recorded: not statistically different from placebo | Anorexia/Cachexia Domain, Treatment Difference (anamorelin vs. placebo), LS Mean (SE) [3, 13]: 2.14 (0.676) | Body Weight, Treatment Difference (anamorelin vs. placebo), LS Mean (SE) [3, 13]: 1.53 (0.327) kg | Body Weight, overall change from baseline, LS Mean (SE) [3, 13]: 0.95 (0.386) kg | FAACT Anorexia/Cachexia Domain, change from baseline, LS Mean (SE) [3, 13]: 3.48 (0.944) | SEA Score, Treatment Difference (anamorelin vs. placebo), LS Mean (SE) [3, 13]: 0.66 (0.283) | SEA Score, change from baseline, LS Mean (SE) [3, 13]: 1.08 (0.400) | FACIT-F fatigue score, subgroup ([3]; MITT, BMI less than or equal to 18.5): maintained a steady score after Week 3 | FACIT-F fatigue score, subgroup ([3]; MITT, ECOG of 2): general trend of improvement | SEF score, subgroups ([3]; MITT, concomitant opioid use and BMI≤18.5): Specific improvements | FACIT-F fatigue score, subgroup ([3]; MITT, concomitantly taking opioids, after Week 3): did not experience as severe of a decline in score as those in the placebo group | FACIT-F fatigue score, subgroup ([3]; MITT, patients under the age of 65, after Week 3): did not experience as severe of a decline in score as those in the placebo group | Tolerability [3, 14]: well tolerated | Concerns related to weight and body image (FAACT) ([3]; in vivo): an improvement | Percentage of change in LBM ([3]; in vivo): consistent increases | Symptoms of early satiety and appetite (individual FAACT questions), change from baseline over time ([3]; in vivo): showed an improvement | Body weight gain versus placebo (healthy subjects [4]): significant dose-related weight gain | Body weight (healthy subjects [5]; 50 mg dose (single or split dose) and 75 mg dose): significant increases | GH levels (healthy subjects [5]; all doses (25, 50, 75 mg)): significantly increased | IGF-1 levels (healthy subjects [5]; all doses (25, 50, 75 mg)): significantly increased | Appetite as measured by BACRI-7 [6]: no significant difference | Body weight compared with placebo [6]: significantly increased | Enjoyment from eating (BACRI-7) [6]: significantly more patients reported greater enjoyment from eating | FACIT-F scores [6]: significantly increased | Food intake [6]: increased but not significantly | GH levels [6]: significantly increased | IGF-1 levels [6]: significantly increased | IGFBP-3 levels [6]: significantly increased | Patient-reported appetite as measured by ASAS [6]: significantly improved | ASAS scores [7]: improved | Fat mass decrease vs. placebo [7]: the difference did not reach statistical significance | Quality of life as measured by the FACIT-F test [7]: No significant effects | Scale weight measures [7]: no corresponding increase | Levels of IGF-1 ([7]; weeks 4, 8, and 12): significantly increased | Levels of IGFBP-3 ([7]; weeks 4, 8, and 12): significantly increased | Lean body mass compared to placebo ([7]; weeks 4 and 8): significantly increased | Total body mass compared to placebo ([7]; weeks 4 and 8): significantly increased | Average weight gain from baseline to week 12 ([8]; 100 mg once daily): statistically significant average weight gain | IGFBP-3 as compared to placebo ([8]; 50 or 100 mg once daily): statistically significant increases | MD Anderson Symptom Inventory (MDASI) scores ([8]; 50 or 100 mg once daily): the improvement was not significant

COc1ccc2[nH]cc(CCNC(C)=O)c2c1 [melatonin]
Weight, body composition (including fat-free mass), symptom scores, quality-of-life outcomes (FACIT-F and FAACT) vs placebo [9]: No differences
